Data as given in patent US20220306630A1, “AGONISTS OF ROR GAMMAt” (BRISTOL-MYERS SQUIBB COMPANY, priority 2019, published 2022).

Target: T1, RORgT (Homo sapiens, UniProt P51449)
T1 construct: Gal4 (fusion partner); expressed in transfected cells; host or cells: engineered Jurkat cells (Jurkat pEx/Gal/hRORγ CLBD/HYG pG5luc/blast)
T1 sequence (P51449 267-516): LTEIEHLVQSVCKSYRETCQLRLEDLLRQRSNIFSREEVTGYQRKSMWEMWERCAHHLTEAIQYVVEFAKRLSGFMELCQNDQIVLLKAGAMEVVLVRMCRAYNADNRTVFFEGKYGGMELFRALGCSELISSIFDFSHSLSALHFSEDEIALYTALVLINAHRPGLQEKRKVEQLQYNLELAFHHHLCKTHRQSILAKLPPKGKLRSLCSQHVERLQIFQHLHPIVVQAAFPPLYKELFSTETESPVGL
Assay: RORgT Gal4 Luciferase Reporter Gene Assay
Assay type: cell-based
Conditions: engineered Jurkat cells overexpressing RORgT (LBD or full length) with Gal4 Luc reporter; 18 hours at 37° C.; 40 μM to 0.67 nM; read-out: RORg_GAL4 EC50
How it was run: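 Cells exposed to compound 18 hours at 37° C, then lysed for luciferase luminescence. Inhibition of constitutive activity expressed as percent reduction of signal window relative to a control compound.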

First: COc1ncc(Oc2c(Cl)cc(NC(=O)CC3CCN(C(=O)C(F)(F)F)CC3)cc2Cl)cc1C(C)C [Example 74]
Second: COc1ncc(Oc2c(Cl)cc(NC(=O)CC3CCN(S(C)(=O)=O)CC3)cc2Cl)cc1C(C)C(F)(F)F (stereo not drawn) [Example 134]
The EC50 of the first is 15-fold higher: 49 nM for the first, 3.2 nM for the second. The second is the more potent here.

First: CC(C)(F)c1cc(Oc2c(Cl)cc(NC(=O)CC3CCN(S(C)(=O)=O)CC3)cc2Cl)cnc1OC(F)F [Example 29, N-(3,5-dichloro-4-((6-(difluoromethoxy)-5-(2-fluoropropan-2-yl)pyridin-3-yl)oxy)phenyl)-2-(1-(methylsulfonyl)piperidin-4-yl)acetamide]
Second: COc1ncc(Oc2c(Cl)cc(NC(=O)CC3CCN(S(=O)(=O)C(C)C)CC3)cc2Cl)cc1C(C)C [Example 24, N-(3,5-dichloro-4-((5-isopropyl-6-methoxypyridin-3-yl)oxy)phenyl)-2-(1-(isopropylsulfonyl)piperidin-4-yl)acetamide]
The EC50 of the first is 7.8-fold lower: 5.8 nM for the first, 45 nM for the second. The first is the more potent here.

Going from CC(c1cc(F)cc(Oc2c(Cl)ccc(C(=O)NCc3ccc(S(N)(=O)=O)cc3)c2Cl)c1)C(F)(F)F (stereo not drawn) [Example 356] to CC(C)c1cc(Oc2c(Cl)ccc(C(=O)NCc3ccc(S(N)(=O)=O)cc3)c2Cl)ccc1F [Example 114], the EC50 falls from 17 nM to 5.2 nM (3.3-fold). The second is the more potent here.

First: CCS(=O)(=O)Nc1cc(Cl)c(Oc2ccc(OC)c(C(C)C)c2)c(Cl)c1 [Example 33, N-(3,5-dichloro-4-(3-isopropyl-4-methoxyphenoxy)phenyl)ethanesulfonamide]
Second: COc1ccc(Oc2c(Cl)cc(NC(=O)C3CC3)cc2Cl)cc1C(C)C [Example 292]
The EC50 of the first is 4.6-fold higher: 4280 nM for the first, 940 nM for the second.

COc1ccc(Oc2c(Cl)ccc(C(=O)N3CCC4(CCN(S(C)(=O)=O)CC4)C3)c2Cl)cc1C(C)C [Example 107] and COc1ccc(Oc2c(Cl)ccc(NC(=O)CN3CCN(S(C)(=O)=O)CC3)c2Cl)cc1C(C)C [Example 106] are within 1.5-fold of each other in EC50: 35 nM for the first, 32 nM for the second.

Going from C=C(C)c1cc(Oc2c(Cl)cc(NC(=O)CC3CCN(S(C)(=O)=O)CC3)cc2Cl)ccc1Cl [Example 269] to C=C(C)c1cc(F)cc(Oc2c(Cl)cc(NC(=O)CC3CCN(S(C)(=O)=O)CC3)cc2Cl)c1 [Example 358], the EC50 falls from 185 nM to 6.6 nM (28-fold).

First: COc1ccc(Oc2c(Cl)ccc(C(=O)NCC3CN(S(C)(=O)=O)C3)c2Cl)cc1C(C)C [Example 91]
Second: CC(C)c1cc(Oc2c(Cl)ccc(C(=O)NCC3CCN(S(C)(=O)=O)CC3)c2Cl)ccc1F [Example 113]
The EC50 of the first is 3.3-fold higher: 88 nM for the first, 27 nM for the second.

COc1ccc(Oc2c(Cl)ccc(C(=O)NCCO)c2Cl)cc1C(C)C [Example 208] and COc1ccc(Oc2c(Cl)ccc(C(=O)NCCNC(C)=O)c2Cl)cc1C(C)C [Example 221] are within 1.5-fold of each other in EC50: 508 nM for the first, 560 nM for the second.

CC(C)c1cc(F)cc(Oc2c(Cl)ccc(C(=O)NCc3cccc(S(C)(=O)=O)c3)c2Cl)c1 [Example 139] and CC(C)c1cc(F)cc(Oc2c(Cl)ccc(C(=O)NCc3cnn(S(C)(=O)=O)c3)c2Cl)c1 [Example 128] are within 1.5-fold of each other in EC50: 187 nM for the first, 139 nM for the second.

First: COc1ccc(Oc2c(F)cc(NC(=O)Cc3cccnc3)cc2F)cc1C1CC1 [Example 39, N-(4-(3-cyclopropyl-4-methoxyphenoxy)-3,5-difluorophenyl)-2-(pyridin-3-yl)acetamide]
Second: COc1ccc(Oc2c(Cl)cc(NC(=O)Cc3cncnc3)cc2Cl)cc1C(C)C [Example 342]
The EC50 of the first is 23-fold higher: 3130 nM for the first, 136 nM for the second. The second is the more potent here.

Compared with COc1ccc(Oc2c(Cl)cc(N3CC(CO)OC3=O)cc2Cl)cc1C(C)C (stereo not drawn) [Example 10, 3-(3,5-dichloro-4-(3-isopropyl-4-methoxyphenoxy)phenyl)-5-(hydroxymethyl) oxazolidin-2-one], COc1ccc(Oc2c(Cl)cc(N3CC(CNC(=O)CS(C)(=O)=O)OC3=O)cc2Cl)cc1C(C)C (stereo not drawn) [Example 253] is 4.4-fold lower in EC50: 2120 nM for the first, 477 nM for the second.

Going from COc1ccc(Oc2c(Cl)cc(NC(=O)C3CCCCC3)cc2Cl)cc1C(C)C [Example 287] to COc1ccc(Oc2c(Cl)cc(NC(=O)CC3CCCNC3)cc2Cl)cc1C(C)C (racemic) [Example 32, N-(3,5-dichloro-4-(3-isopropyl-4-methoxyphenoxy)phenyl)-2-(piperidin-3-yl)acetamide], the EC50 rises from 132 nM to 296 nM (2.2-fold).

Compared with COc1ccc(Oc2c(Cl)cc(NC(=O)CN3CCC(NS(C)(=O)=O)CC3)cc2Cl)cc1C(C)C [Example 169], COc1ccc(Oc2c(Cl)cc(NC(=O)CN3CC[C@@H](NS(C)(=O)=O)C3)cc2Cl)cc1C(C)C [Example 160] is 3.5-fold higher in EC50: 93 nM for the first, 325 nM for the second.

COc1ccc(Oc2c(Cl)cc(NC(=O)CN3CCN(S(=O)(=O)C4CC4)CC3)cc2Cl)cc1C(C)C [Example 315] and COc1ccc(Oc2c(Cl)cc(NC(=O)CN3CCN(S(N)(=O)=O)CC3)cc2Cl)cc1C(C)C [Example 48, N-(3,5-dichloro-4-(3-isopropyl-4-methoxyphenoxy)phenyl)-2-(4-sulfamoylpiperazin-1-yl)acetamide] are within 1.5-fold of each other in EC50: 88 nM for the first, 105 nM for the second.

CC(C)c1cc(F)cc(Oc2c(Cl)cc(NC(=O)Cc3cccc(S(C)(=O)=O)c3)cc2Cl)c1 [Example 328] and COc1ccc(Oc2c(Cl)cc(NC(=O)Cc3cccc(S(C)(=O)=O)c3)cc2Cl)cc1C(C)C [Example 231] are within 1.5-fold of each other in EC50: 19 nM for the first, 26 nM for the second.

Going from COc1ccc(Oc2c(Cl)ccc(CNC(=O)C3CCN(S(N)(=O)=O)CC3)c2Cl)cc1C(C)C [Example 63] to COc1ccc(Oc2c(Cl)ccc(CNC(=O)C3CCN(S(C)(=O)=O)CC3)c2Cl)cc1C(C)C [Example 213], the EC50 falls from 31 nM to 19 nM (1.6-fold).

COC(=O)c1cccc(C(=O)Nc2cc(Cl)c(Oc3ccc(OC)c(C(C)C)c3)c(Cl)c2)c1 [Example 288] and COc1ccc(Oc2c(Cl)cc(NC(=O)c3cccc(S(C)(=O)=O)c3)cc2Cl)cc1C(C)C [Example 289] are within 1.5-fold of each other in EC50: 1270 nM for the first, 1480 nM for the second.

First: COc1ccc(Oc2c(Cl)cc(NC(=O)C3(c4cnccn4)CC3)cc2Cl)cc1C(C)C [Example 346]
Second: COc1ccc(Oc2c(Cl)cc(NC(=O)c3cnccn3)cc2Cl)cc1C(C)C [Example 294]
The EC50 of the first is 5.5-fold lower: 816 nM for the first, 4520 nM for the second. The first is the more potent here.

Compared with COc1ccc(Oc2c(Cl)ccc(CNS(=O)(=O)c3cccnc3)c2Cl)cc1C(C)C [Example 21, N-(2,4-dichloro-3-(3-isopropyl-4-methoxyphenoxy)benzyl)pyridine-3-sulfonamide], COc1ccc(Oc2c(Cl)ccc(C(=O)NCc3ccccn3)c2Cl)cc1C(C)C [Example 194] is 9.9-fold higher in EC50: 650 nM for the first, 6460 nM for the second. The first is the more potent here.

COc1ncc(Oc2c(Cl)ccc(C(=O)NCc3ccc(S(N)(=O)=O)cc3)c2Cl)cc1C(C)C [Example 117] and COc1ncc(Oc2c(Cl)ccc(C(=O)NCc3ccc(S(N)(=O)=O)cc3)c2Cl)cc1C(C)(C)F [Example 154] are within 1.5-fold of each other in EC50: 6 nM for the first, 6.6 nM for the second.

First: CC(c1cc(F)cc(Oc2c(Cl)cc(NC(=O)Cc3ccc(S(C)(=O)=O)cc3)cc2Cl)c1)C(F)(F)F (stereo not drawn) [Example 353]
Second: CC(C)(F)c1cc(F)cc(Oc2c(Cl)cc(NC(=O)Cc3ccc(S(C)(=O)=O)cc3)cc2Cl)c1 [Example 325]
The EC50 of the first is 1.9-fold higher: 14 nM for the first, 7.2 nM for the second.

First: COc1ccc(Oc2c(Cl)cc(NC(=O)c3ccc(S(C)(=O)=O)cc3)cc2Cl)cc1C(C)C [Example 293]
Second: CCS(=O)(=O)c1ccc(CC(=O)Nc2cc(Cl)c(Oc3ccc(OC)c(C(C)C)c3)c(Cl)c2)cc1 [Example 307]
The EC50 of the first is 200-fold higher: 3270 nM for the first, 16 nM for the second.

Compared with CC(C)c1cc(F)cc(Oc2c(Cl)cc(NC(=O)NC3CCCN(S(C)(=O)=O)C3)cc2Cl)c1 (stereo not drawn) [Example 26, 1-(3,5-dichloro-4-(3-fluoro-5-isopropylphenoxy)phenyl)-3-(1-(methylsulfonyl)piperidin-3-yl)urea], CS(=O)(=O)N1CCN(CC(=O)Nc2cc(Cl)c(Oc3ccc(F)c(C4CC4)c3)c(Cl)c2)CC1 [Example 271] is 4.1-fold lower in EC50: 322 nM for the first, 78 nM for the second. The second is the more potent here.

Going from COc1ccc(Oc2c(Cl)cc(NC(=O)c3ccccc3)cc2Cl)cc1C(C)C [Example 299] to COc1ccc(Oc2c(Cl)cc(NC(=O)Cc3cccc(C#N)c3)cc2Cl)cc1C(C)C [Example 4, 2-(3-cyanophenyl)-N-(3,5-dichloro-4-(3-isopropyl-4-methoxyphenoxy)phenyl) acetamide], the EC50 falls from 20000 nM to 121 nM (170-fold).

Compared with CC1(c2cc(F)cc(Oc3c(Cl)ccc(C(=O)NCc4ccc(S(C)(=O)=O)cc4)c3Cl)c2)CC1 [Example 276], CNC(=O)c1ccc(CNC(=O)c2ccc(Cl)c(Oc3ccc(OC)c(C(C)C)c3)c2Cl)cc1 [Example 102] is 89-fold higher in EC50: 5.1 nM for the first, 455 nM for the second. The first is the more potent here.

First: COc1ncc(Oc2c(Cl)ccc(C(=O)NC(C)c3ccc(S(C)(=O)=O)cc3)c2Cl)cc1C(C)C (stereo not drawn) [Example 143]
Second: COc1ccc(Oc2c(Cl)ccc(C(=O)NCc3ccc(C#N)cc3)c2Cl)cc1C(C)C [Example 228]
The EC50 of the first is 8.9-fold lower: 11.5 nM for the first, 102 nM for the second. The first is the more potent here.

COc1ccc(Oc2c(Cl)ccc(C(=O)NC[C@H]3CC[C@H](C(=O)O)CC3)c2Cl)cc1C(C)C [Example 70] and COc1ccc(Oc2c(Cl)ccc(C(=O)N3CCC(c4ccc(Cl)cc4)CC3)c2Cl)cc1C(C)C [Example 191] are within 1.5-fold of each other in EC50: 141 nM for the first, 128 nM for the second.

Compared with COc1ccc(Oc2c(Cl)cc(NC(=O)Cn3ccnc3)cc2Cl)cc1C(C)C [Example 302], COc1ccc(Oc2c(Cl)cc(NC(=O)CCn3ccnc3)cc2Cl)cc1C(C)C [Example 297] is 4.2-fold lower in EC50: 185 nM for the first, 44 nM for the second. The second is the more potent here.

CC1(c2cc(F)cc(Oc3c(Cl)cc(NC(=O)CC4CCN(C(=O)C(F)(F)F)CC4)cc3Cl)c2)CC1 [Example 275] and CC(c1cc(F)cc(Oc2c(Cl)ccc(C(=O)N3CCC4(CC3)CN(S(C)(=O)=O)C4)c2Cl)c1)C(F)(F)F (stereo not drawn) [Example 357] are within 1.5-fold of each other in EC50: 12 nM for the first, 11 nM for the second.

Compared with COc1ccc(Oc2c(Cl)ccc(CNS(=O)(=O)C3CCN(S(N)(=O)=O)CC3)c2Cl)cc1C(C)C [Example 98], COc1ccc(Oc2c(Cl)ccc(C(=O)N3CCN(c4ccc(Cl)cc4)CC3)c2Cl)cc1C(C)C [Example 230] is 19-fold higher in EC50: 20 nM for the first, 373 nM for the second. The first is the more potent here.
